# Results reported in patent publication US20100015050A1, “PEG AND TARGETING LIGANDS ON NANOPARTICLE SURFACE” (WAYNE STATE UNIVERSITY, priority 2006, published 2010).
# Legend:
# MCF-7 cells = assay: MTS cytotoxicity of paclitaxel treatments in drug-sensitive cells; assay type: cell-based; settings: paclitaxel 100 nM in solution or equivalent in nanoparticles; compared to untreated cells
# Method: (§1) Drug sensitive (MCF-7) and drug-resistant (NCl/ADR-RES) cells were plated in 96-well plates at a density of 5000 cells/well/0.1 mL. Cells were then treated with paclitaxel (Pac) in solution (100 nM) or equivalent in nanoparticles (NP). […] Untreated cells and cells treated with empty nanoparticles were used as controls. Cytotoxicity was followed using a standard MTS assay (see Methods). […] Data as mean±SD, n=6 wells. * P<0.05.
# The inventors initially investigated the efficacy of paclitaxel encapsulated in nanoparticles in drug-sensitive MCF-7 cells.
# NCl/ADR-RES cells [1] = assay: MTS cytotoxicity in drug-resistant, P-gp overexpressing cells; assay type: cell-based; settings: paclitaxel 100 nM in solution or in nanoparticles, no verapamil
# Method: as §1
# NCl/ADR-RES cells were plated in 96-well plates at a density of 5000 cells/well/0.1 mL. Cells were then treated with paclitaxel (Pac, 100 nM) in nanoparticles (NP). […] Untreated cells were used as controls. Cytotoxicity was followed as a function of time using a standard MTS assay. The medium was changed on day 2 and every other day thereafter, and no further dose of drug was added.
# Drug-resistant (NCl/ADR-RES) cells were plated in 96-well plates at a density of 5000 cells/well/0.1 mL. Cells were then treated with dual-agent nanoparticles releasing 0.3 ng/day/8 μg siRNA and 7 ng/day/8 μg paclitaxel. Cells treated with non-targeted (scrambled) siRNA and untreated cells were used as controls. Cytotoxicity was followed using a standard MTS assay. The medium was changed on day 2 and every other day thereafter, and no further dose of drug was added. Data as mean±SD, n=6 wells. * P<0.05 compared to controls. […]
# MCF-7 xenografts = assay: tumor growth and survival after single-dose paclitaxel treatment; assay type: in vivo; settings: 400 μg paclitaxel/animal, nude mice
# From the text: Effect of a single-dose paclitaxel treatment on tumor growth was investigated in nude mice bearing MCF-7 xenografts.
# NCl/ADR-RES cells [2] = assay: nanoparticle uptake/retention and paclitaxel accumulation in cells (HPLC); assay type: cell-based; settings: inhibition of P-gp by verapamil
# Method: NCl/ADR-RES cells were plated in 24-well plates at a density of 50,000 cells/well/1 mL. […] The medium was changed on day 2 and every other day thereafter, and no further dose of drug was added. Cells were harvested at different time intervals, and lysed using cell culture lysis reagent (Promega).
# In order to verify that differences in drug accumulation are not due to differences in nanoparticle uptake/retention in cells, the inventors labeled nanoparticles with 6-coumarin, and followed the cell uptake and retention of nanoparticles and paclitaxel in NCl/ADR-RES cells.
# [3] = tested on: vascular smooth muscle cells; assay: MTS cytotoxicity of dexamethasone formulations; assay type: cell-based; settings: nanoparticles 600 μg/mL or drug solution 25 μg/mL, single dose
# Method: Nanoparticle formulations with different drug release rates were formulated by emulsion solvent evaporation technique. […] Data represented as mean±SD, n=3. The two formulations were investigated for cytotoxicity in vascular smooth muscle cells. Cells were plated in 96-well plates at a density of 5000 cells/well/0.1 mL. A nanoparticle suspension prepared in regular serum-containing growth medium (600 μg/mL, 0.1 mL) was added to each well. Drug solution in growth medium (25 μg/mL) was also added to some of the wells. Untreated cells were used as controls. Cytotoxicity was determined using a standard MTS assay. The medium was changed on day 2 and every other day thereafter, and no further dose of drug was added. Data as mean±SD, n=6. […] Data represented as mean±SEM, n=3. Cells were plated at 100,000 cells/well/2 ml in 6-well plates. Drug encapsulated in nanoparticles (600 μg of nanoparticles/ml, 2 ml) or in solution (25 μg/ml, 2 ml) was added to each well. Medium was changed on day 2 and every other day thereafter, and no further dose of the drug was added.
compound,measurement,setting,value
CC(=O)O[C@H]1C(=O)[C@@]2(C)[C@H]([C@H](OC(=O)c3ccccc3)[C@]3(O)C[C@H](OC(=O)[C@H](O)[C@@H](NC(=O)c4ccccc4)c4ccccc4)C(C)=C1C3(C)C)[C@]1(OC(C)=O)CO[C@@H]1C[C@@H]2O [paclitaxel],inhibition of cell proliferation,MCF-7 cells,marginal but significant (P<0.05) inhibition of cell proliferation
same,effect on the viability of cells,NCl/ADR-RES cells [1],no significant effect on the viability of cells
same,effect on tumor growth,MCF-7 xenografts,only marginally effective
COc1ccc(CCN(C)CCCC(C#N)(c2ccc(OC)c(OC)c2)C(C)C)cc1OC (stereo not drawn) [verapamil],effect on uptake or retention of nanoparticles,NCl/ADR-RES cells [2],did not significantly increase the uptake or retention of nanoparticles
C[C@@H]1C[C@H]2[C@@H]3CCC4=CC(=O)C=C[C@]4(C)[C@@]3(F)[C@@H](O)C[C@]2(C)[C@@]1(O)C(=O)CO [dexamethasone],cytotoxicity / inhibition of cell proliferation,[3],transient cytotoxicity
same,duration of cytotoxicity,[3],up to 5 days
